Measurements published in ChEMBL document CHEMBL1154288, “The discovery and unique pharmacological profile of RO4938581 and RO4882224 as potent and selective GABAA alpha5 inverse agonists for the treatment of cognitive dysfunction” (Bioorg Med Chem Lett, 2009).

Tests used:
[1] = target: GABA A receptor alpha-5/beta-3/gamma-2 (Rattus norvegicus) (UniProt P18508+P19969+P63079); test: Inverse agonist activity at rat GABA alpha-5-beta-3-gamma-2 receptor expressed in HEK293 cells by electrophysiology assay relative to GABA; format: functional, cell-based
[2] = tested on: HEK293; test: Selectivity ratio of Ki for cloned human GABA alpha-3-beta-3-gamma-2 receptor expressed in HEK293 cells to Ki for cloned human GABA alpha-5-beta-3-gamma-2 receptor expressed in HEK293 cells; format: cell-based
[3] = tested on: HEK293; test: Selectivity ratio of Ki for cloned human GABA alpha-2-beta-3-gamma-2 receptor expressed in HEK293 cells to Ki for cloned human GABA alpha-5-beta-3-gamma-2 receptor expressed in HEK293 cells; format: cell-based
[4] = tested on: HEK293; test: Selectivity ratio of Ki for cloned human GABA alpha-1-beta-3-gamma-2 receptor expressed in HEK293 cells to Ki for cloned human GABA alpha-5-beta-3-gamma-2 receptor expressed in HEK293 cells; format: cell-based
[5] = target: T1, GABA-A receptor; alpha-5/beta-3/gamma-2 (Homo sapiens, UniProt P18507+P28472+P31644); test: Displacement of [3H]Flumazenil from cloned human GABA alpha-5-beta-3-gamma-2 receptor expressed in HEK293 cells; format: cell-based
T1 sequence (P18507 whole entry): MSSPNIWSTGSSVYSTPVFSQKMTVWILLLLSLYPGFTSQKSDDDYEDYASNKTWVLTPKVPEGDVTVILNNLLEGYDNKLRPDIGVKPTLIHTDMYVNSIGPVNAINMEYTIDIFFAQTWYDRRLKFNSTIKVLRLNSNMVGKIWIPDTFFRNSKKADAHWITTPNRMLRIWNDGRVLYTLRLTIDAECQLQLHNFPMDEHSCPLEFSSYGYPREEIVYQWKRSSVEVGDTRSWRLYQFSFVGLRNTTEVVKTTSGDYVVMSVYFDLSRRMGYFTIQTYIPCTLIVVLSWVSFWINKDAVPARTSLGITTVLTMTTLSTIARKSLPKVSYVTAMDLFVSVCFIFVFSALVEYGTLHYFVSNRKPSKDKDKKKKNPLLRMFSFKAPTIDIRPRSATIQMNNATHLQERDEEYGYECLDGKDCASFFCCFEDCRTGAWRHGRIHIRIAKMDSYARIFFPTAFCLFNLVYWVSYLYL
T1 sequence (P28472 whole entry): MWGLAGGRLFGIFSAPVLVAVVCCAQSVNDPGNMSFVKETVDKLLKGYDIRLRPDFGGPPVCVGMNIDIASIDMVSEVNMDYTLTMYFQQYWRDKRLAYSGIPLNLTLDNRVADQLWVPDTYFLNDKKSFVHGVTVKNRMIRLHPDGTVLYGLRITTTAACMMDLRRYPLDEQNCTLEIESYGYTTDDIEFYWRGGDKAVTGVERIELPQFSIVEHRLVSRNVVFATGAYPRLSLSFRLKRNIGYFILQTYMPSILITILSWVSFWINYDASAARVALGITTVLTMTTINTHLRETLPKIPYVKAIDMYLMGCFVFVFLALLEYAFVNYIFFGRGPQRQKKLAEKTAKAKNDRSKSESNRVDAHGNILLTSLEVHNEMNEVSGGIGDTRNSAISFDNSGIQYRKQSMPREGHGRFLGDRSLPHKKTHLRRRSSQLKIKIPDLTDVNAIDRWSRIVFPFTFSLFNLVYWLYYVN
T1 sequence (P31644 whole entry): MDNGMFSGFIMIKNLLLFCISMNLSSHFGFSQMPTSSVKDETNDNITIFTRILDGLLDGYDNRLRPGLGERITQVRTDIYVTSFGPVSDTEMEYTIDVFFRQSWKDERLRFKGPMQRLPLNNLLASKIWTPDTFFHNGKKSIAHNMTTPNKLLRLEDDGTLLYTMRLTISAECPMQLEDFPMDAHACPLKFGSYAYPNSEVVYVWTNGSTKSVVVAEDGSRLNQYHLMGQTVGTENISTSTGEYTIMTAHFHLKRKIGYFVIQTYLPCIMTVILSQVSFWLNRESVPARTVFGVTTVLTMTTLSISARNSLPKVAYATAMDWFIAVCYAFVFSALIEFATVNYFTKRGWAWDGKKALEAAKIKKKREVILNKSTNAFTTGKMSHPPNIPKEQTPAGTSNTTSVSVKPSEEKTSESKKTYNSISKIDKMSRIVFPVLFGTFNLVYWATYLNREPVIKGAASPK

[6] = target: GABA-A receptor; alpha-5/beta-3/gamma-2 (Homo sapiens) (UniProt P18507+P28472+P31644); test: Inverse agonist activity at human GABA alpha-5-beta-3-gamma-2 receptor expressed in Xenopus laevis oocyts by electrophysiology assay relative to GABA; format: functional

| SMILES | Efficacy [1] [%] | Ratio Ki [2] | Ratio Ki [3] | Ratio Ki [4] | Ki [5] [nM] | Efficacy [6] [%] |
| --- | --- | --- | --- | --- | --- | --- |
| N#Cc1ccc2c(c1)-c1ncnn1Cc1c(Cl)ncn1-2 | -27 | 5 | 16 | 15 | 2.4 | – |
| Cc1ncn2c1Cn1ncnc1-c1cc(C(F)(F)F)ccc1-2 | – | 29 | 78 | 29 | 18 | -32 |
| CCC(F)(F)c1ncn2c1Cn1ncnc1-c1cc(F)ccc1-2 | -27 | 2 | 3 | 5 | 3.2 | – |
| Cn1nccc1-c1ncn2c1Cn1ncnc1-c1cc(Br)ccc1-2 | – | 22 | 35 | 26 | 9.7 | -33 |
| Cc1cccc(-c2ncn3c2Cn2ncnc2-c2cc(Cl)ccc2-3)n1 | -12 | 8 | 11 | 11 | 31 | – |
| Clc1ncn2c1Cn1ncnc1-c1ccccc1-2 | -41 | 2 | 5 | 13 | 0.3 | – |
| C#CCNC(=O)c1ncn2c1Cn1ncnc1-c1cc(F)ccc1-2 | -35 | 1 | 1 | 4 | 68 | – |
| Brc1ccc2c(c1)-c1ncnn1Cc1c(-c3cccs3)ncn1-2 | – | 16 | 22 | 27 | 4 | -10 |
| O=C(Nc1ccc2c(c1)-c1ncnn1Cc1c(Cl)ncn1-2)C1CC1 | – | 5 | 6 | 2 | 16 | -48 |
| Cc1ncn2c1Cn1ncnc1-c1ccccc1-2 | -44 | 4 | 6 | 16 | 2.6 | – |
| Cc1ccc2c(c1)-c1ncnn1Cc1c(C)ncn1-2 | – | 23 | 34 | 11 | 9.2 | -37 |
| Cc1nc(-c2ncn3c2Cn2ncnc2-c2cc(F)ccc2-3)no1 | -12 | 3 | 5 | 3 | 0.2 | – |
| Clc1ncn2c1Cn1ncnc1-c1cc(NC3CC3)ccc1-2 | -37 | 36 | 43 | 10 | 2.2 | – |
| FC(F)c1ccc2c(c1)-c1ncnn1Cc1c(Cl)ncn1-2 | -42 | 15 | 36 | 19 | 1.1 | – |
| CCCc1ncn2c1Cn1ncnc1-c1cc(Cl)ccc1-2 | -35 | 3 | 5 | 3 | 1.6 | – |
| Clc1ncn2c1Cn1ncnc1-c1cc(C3CC3)ccc1-2 | -47 | 16 | 15 | 23 | 1.2 | – |
| Cc1ncn2c1Cn1ncnc1-c1cc(OC(F)(F)F)ccc1-2 | -41 | 24 | 29 | 10 | 50 | – |
